Earlier results as cited in patent US6823530B2, “Antimicrobial treatment for swimwear” (Kimberly-Clark Worldwide, Inc., priority 2000, dated 2004).

Key:
[1] = system: gram negative and positive bacteria

Compound: CC1(C)C(=O)N(CO)C(=O)N1CO [DMDM Hydantoin, DMDM (dimethyl dimethyl) Hydantoin]
- effectiveness against gram negative and positive bacteria [1]: highly effective
- thermal stability (held above room temperature (50° Celsius) for a long period of time): does not break down
- pH stability (wide pH range): stable over a wide pH range
